One may read the GI50 as the concentration at which growth is held to half of that of the control.

Among the data in patent US12558428B2, “Heterobifunctional compounds and their use in treating disease” (Halda Therapeutics OpCo, Inc., priority 2024, dated 2026) are GI50 values, retold here.

What all share (type): cell-based
The subject of assay [1] is T-Rex 293 cells lacking increased expression of estrogen receptor alpha protein. Briefly: Cellular growth inhibition assay, T-Rex 293 cells, (−) doxycycline. The note with it: T-REx-293, 72 h, 72 hours. The essentials: (§1)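 ERα overexpression was switched on by 3 ng/mL doxycycline in a stably transfected T-Rex 293 clone, while uninduced cells served as the comparison line. Proliferation over 72 h of compound treatment was assessed by ATP luminescence, and GI50 values came from four-parameter curves.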

Assay [2] relates to MCF7 cells (ATCC #HTB-22). Briefly: Cellular growth inhibition assay, MCF7 cells purchased from ATCC. The note with it: Homo sapiens, MCF7, 144 h, Table 8-A; MCF7 cells purchased from ATCC; six days; CellTiter-Glo; read-out: GI50. In a few lines:
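MCF7 cells in RPMI 1640 with 10% FBS and 0.2 U/ml insulin, seeded at 1,500 cells/well (ATCC) or 225 cells/well (ECACC). Compounds added 24 h later, then 6 days at 37° C. Viability by CellTiter-Glo 2.0 luminescence. GI50 from four-parameter fit.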
A general note: ATP-based viability assays read luminescence as a measure of living cells.

Assay [3] concerns T-Rex 293 cells having increased expression of estrogen receptor alpha protein. As to the kind of experiment: Cellular growth inhibition assay, T-Rex 293 cells, (+) doxycycline. The note with it: T-REx-293, 72 h, 72 hours. In a few lines:
as §1

[4] abbreviates: Table 7-A, T-Rex 293 cells without doxycycline (lacking increased ERα expression), CellTiter-Glo, read-out: (−) Dox GI50.
The mark [5] stands for this setting: Table 7-A, T-Rex 293 cells with doxycycline (increased ERα expression), CellTiter-Glo, read-out: (+) Dox GI50.

Where two headings read alike, the source gives them in different places.

Regarding `Cc1sc2c(c1C)C(c1ccc(N3CCC(O)(CN4CCN(c5ccc(C6=C(c7ccccc7Cl)CCCc7cc(C(=O)O)ccc76)cc5)CC4)CC3)c(Cl)c1)=N[C@@H](C)c1nnc(C)n1-2` [IV-61], the figures for the GI50 in assay [1] (setting [4]), in assay [2] and in assay [3] (setting [5]) were 500 to 2500 nM, less than 50 nM and less than 50 nM, respectively.
As for `Cc1sc2c(c1C)C(c1ccc(N3C4CCC3CN(CCOc3ccc([C@@H]5c6ccc(O)cc6CC[C@@H]5c5ccccc5)cc3)C4)cc1)=NC(Cc1ncco1)c1nnc(C)n1-2` (stereo partly drawn) [III-31], the results for the GI50 in assay [1] (setting [4]), in assay [2] and in assay [3] (setting [5]) were 50 to 500 nM, 50 to 500 nM and more than 2500 nM, respectively.
For `Cc1sc2c(c1C)C(c1ccc(N3CC(CN4CCN(CC5CN(c6ccc(C7=C(c8ccccc8Cl)CCCc8cc(C(=O)O)ccc87)cc6)C5)CC4)C3)cc1)=N[C@@H](C)c1nnc(C)n1-2` [IV-54], the GI50 in assay [1] (setting [4]) is 50 to 500 nM; in assay [2], less than 50 nM; in assay [3] (setting [5]) it was less than 50 nM.
As to `Cc1sc2c(c1C)C(c1ccc(N3CCC4(CC3)CN(CC3CN(c5ccc([C@@H]6c7ccc(O)cc7CC[C@@H]6c6ccccc6)cc5)C3)C4)cc1)=N[C@@H](C)c1nnc(C)n1-2` [III-108], the GI50 in assay [1] (setting [4]) is 50 to 500 nM; in assay [2], less than 50 nM; in assay [3] (setting [5]), less than 50 nM.
As to `Cc1sc2c(c1C)C(c1ccc(N3CC(O)(CN4CCN(CC5CN(c6ccc(C7=C(c8ccccc8)CCCc8cc(C(=O)O)ccc87)cc6)C5)CC4)C3)cc1)=N[C@@H](C)c1nnc(C)n1-2` [IV-45], the GI50 in assay [1] (setting [4]), in assay [2] and in assay [3] (setting [5]) was less than 50 nM in each case.
In the case of `Cc1sc2c(c1C)C(c1ccc(N3CC4(CC(CN5CCC(c6ccc([C@@H]7c8ccc(O)cc8CC[C@@H]7c7ccccc7)cc6)CC5)C4)C3)cc1)=N[C@@H](C)c1nnc(C)n1-2` [III-242], the GI50 in assay [1] (setting [4]) is 500 to 2500 nM; in assay [2], less than 50 nM; in assay [3] (setting [5]), less than 50 nM.
For `Cc1sc2c(c1C)C(c1ccc(N3CCC(CN4CCC(c5ccc(C6=C(c7ccc(Cl)cc7Cl)CCCc7cc(C(=O)O)ccc76)cc5)CC4)CC3)cc1)=N[C@@H](C)c1nnc(C)n1-2` [IV-6], the GI50 lay in the range of 500 to 2500 nM in assay [1] (setting [4]), 50 to 500 nM in assay [2] and 50 to 500 nM in assay [3] (setting [5]).
As for `CC1=C(c2c(F)cc(F)cc2F)[C@@H](c2ccc(N3CCN(C(=O)C4CCN(c5ccc(C6=N[C@@H](C)c7nnc(C)n7-c7sc(C)c(C)c76)cc5)CC4)CC3)cc2)Oc2ccc(O)cc21` [V-14], the GI50 in assay [1] (setting [4]) was 500 to 2500 nM; in assay [2], 50 to 500 nM; in assay [3] (setting [5]), 50 to 500 nM.
In the case of `Cc1cc(N2CCC(O)(CN3CCN(c4cc(F)c([C@@H]5c6ccc(O)cc6CC[C@@H]5c5ccccc5)cc4F)CC3)CC2)ccc1Oc1ccc(C(C)(C)O)cc1-c1cn(C)c(=O)c2[nH]ccc12` [V-37], the GI50 in assay [1] (Table 7-B, T-Rex 293 cells without doxycycline (lacking increased ERα expression), CellTiter-Glo, read-out: (−) Dox GI50) was 500 to 2500 nM; in assay [2] it was less than 50 nM; in assay [3] (Table 7-B, T-Rex 293 cells with doxycycline (increased ERα expression), CellTiter-Glo, read-out: (+) Dox GI50), less than 50 nM.
With `Cc1sc2c(c1C)C(c1ccc(N3CC(CN4CCC(C(=O)N5CC(c6ccc([C@@H]7c8ccc(O)cc8CC[C@@H]7c7ccccc7)cc6)C5)CC4)C3)cc1)=N[C@@H](C)c1nnc(C)n1-2` [III-173], the results for the GI50 in assay [1] (setting [4]), in assay [2] and in assay [3] (setting [5]) were 50 to 500 nM, less than 50 nM and less than 50 nM, respectively.
Consider `Cc1sc2c(c1C)C(c1ccc(N3CCC(O)(CN4CCN(c5ccc(C6=C(c7ccccc7)CCCc7cc(C(=O)O)ccc76)cc5F)CC4)CC3)cc1)=N[C@@H](C)c1nnc(C)n1-2` [IV-33], for which the values for the GI50 in assay [1] (setting [4]), in assay [2] and in assay [3] (setting [5]) were 500 to 2500 nM, less than 50 nM and less than 50 nM, respectively.
For `Cc1sc2c(c1C)C(c1ccc(N3CC(CN4CCC(C(=O)N5CC(c6ccc([C@@H]7c8ccc(O)cc8CC[C@@H]7c7ccccc7)cc6)C5)CC4)C3)cc1)=N[C@@H](Cc1ncco1)c1nnc(C)n1-2` [III-176], the GI50 was 50 to 500 nM in assay [1] (setting [4]), less than 50 nM in assay [2] and less than 50 nM in assay [3] (setting [5]).
Regarding `Cc1sc2c(c1C)C(c1ccc(OCCC3CCN(c4ccc(C(=O)c5c(-c6ccc(O)cc6)sc6cc(O)ccc56)cc4)CC3)cc1)=N[C@@H](Cc1ncco1)c1nnc(C)n1-2` [I-15, (S)-(6-hydroxy-2-(4-hydroxyphenyl)benzo[b]thiophen-3-yl)(4-(4-(2-(4-(2,3,9-trimethyl-6-(oxazol-2-ylmethyl)-6H-thieno[3,2-f][1,2,4]triazolo[4,3-a][1,4]diazepin-4-yl)phenoxy)ethyl)piperidin-1-yl)phenyl)methanone], the GI50 is less than 50 nM in assay [1] (T-Rex 293 cells without doxycycline, CellTiter-Glo 2.0, read-out: (−) Dox TRex ERa (GI50)); less than 50 nM in assay [2]; less than 50 nM in assay [3] (T-Rex 293 cells with doxycycline-induced ERα expression, CellTiter-Glo 2.0, read-out: (+) Dox TRex ERa (GI50)).
On to `Cc1sc2c(c1C)C(c1ccc(C3CN(C[C@H]4C[C@H](CN5CC(c6ccc([C@@H]7c8ccc(O)cc8CC[C@@H]7c7ccccc7)cc6)C5)C4)C3)cc1)=N[C@@H](C)c1nnc(C)n1-2` [III-261], for which the figures for the GI50 in assay [1] (setting [4]), in assay [2] and in assay [3] (setting [5]) were 500 to 2500 nM, 50 to 500 nM and less than 50 nM, respectively.
On to `Cc1sc2c(c1C)C(c1ccc(N3CC4(CCC(O)(CN5CCC(c6ccc([C@@H]7c8ccc(O)cc8CC[C@@H]7c7ccccc7)cc6)CC5)CC4)C3)cc1)=N[C@@H](Cc1ncco1)c1nnc(C)n1-2` [III-211], for which the GI50 in assay [1] (setting [4]) is 50 to 500 nM; in assay [2] it was less than 50 nM; in assay [3] (setting [5]), less than 50 nM.
`Cc1sc2c(c1C)C(c1ccc(N3CCC(CC4(O)CCN(c5ccc([C@@H]6c7ccc(O)cc7CC[C@@H]6c6ccccc6)cc5)CC4)CC3)cc1)=N[C@H](Cc1ncco1)c1nnc(C)n1-2` [III-163]: the figures for the GI50 in assay [1] (setting [4]), in assay [2] and in assay [3] (setting [5]) were more than 2500 nM, 50 to 500 nM and more than 2500 nM, respectively.
For `Cc1sc2c(c1C)C(c1ccc(N3CCC(O)(CN4CCC(c5cc(F)c([C@@H]6c7ccc(O)cc7CC[C@@H]6c6ccc(F)cc6)c(F)c5)CC4)CC3)cc1)=N[C@@H](C)c1nnc(C)n1-2` (single isomer, unassigned) [III-245], the values for the GI50 in assay [1] (setting [4]), in assay [2] and in assay [3] (setting [5]) were 500 to 2500 nM, less than 50 nM and less than 50 nM, respectively.
For `Cc1sc2c(c1C)C(c1ccc(N3CC4(CC(CN5CCC(c6ccc(C7=C(c8ccccc8)CCCc8cc(C(=O)O)ccc87)cc6)CC5)C4)C3)cc1)=N[C@@H](C)c1nnc(C)n1-2` [IV-41], the GI50 in assay [1] (setting [4]) is 50 to 500 nM; in assay [2] it was less than 50 nM; in assay [3] (setting [5]), less than 50 nM.
In the case of `Cc1sc2c(c1C)C(c1ccc(C3CN(CC4CC(CN5CC(c6ccc(C7=C(c8ccccc8)CCCc8cc(C(=O)O)ccc87)cc6)C5)C4)C3)cc1)=N[C@@H](C)c1nnc(C)n1-2` (stereo partly drawn) [IV-62], the figures for the GI50 in assay [1] (setting [4]), in assay [2] and in assay [3] (setting [5]) were 500 to 2500 nM, less than 50 nM and less than 50 nM, respectively.
As to `Cc1sc2c(c1C)C(c1ccc(N3CCC(C(=O)N4CCN(c5ccc(C6=C(c7ccc(Cl)cc7Cl)CCCc7cc(C(=O)O)ccc76)cc5)CC4)CC3)cc1)=N[C@@H](C)c1nnc(C)n1-2` [IV-7], the GI50 fell in the range of 500 to 2500 nM in assay [1] (setting [4]), 50 to 500 nM in assay [2] and 50 to 500 nM in assay [3] (setting [5]).
For the molecule `Cc1sc2c(c1C)C(c1ccc(N3CCN(CCC4CN(c5ccc([C@@H]6c7ccc(O)cc7CC[C@@H]6c6ccccc6)cc5)C4)CC3)cc1)=N[C@@H](C)c1nnc(C)n1-2` [III-80], the GI50 in assay [1] (setting [4]) was 500 to 2500 nM; in assay [2], more than 2500 nM; in assay [3] (setting [5]), 50 to 500 nM.
Taken in the same sequence, the figures for `Cc1sc2c(c1C)C(c1ccc(N3CCC4(CCN(CCOc5ccc([C@@H]6c7ccc(O)cc7CC[C@@H]6c6ccccc6)cc5)C4)CC3)cc1)=NC(Cc1ncco1)c1nnc(C)n1-2` (stereo partly drawn) [III-36] were 50 to 500 nM, less than 50 nM and less than 50 nM.
